# Experiments:
# P-selectin = molecular target: T1, P-selectin (Homo sapiens, UniProt P16109); experiment: Inhibition of immobilized rhPSGL-Ig binding to soluble P-selectin by surface plasmon resonance competitive binding assay
# T1 sequence (P16109 whole entry): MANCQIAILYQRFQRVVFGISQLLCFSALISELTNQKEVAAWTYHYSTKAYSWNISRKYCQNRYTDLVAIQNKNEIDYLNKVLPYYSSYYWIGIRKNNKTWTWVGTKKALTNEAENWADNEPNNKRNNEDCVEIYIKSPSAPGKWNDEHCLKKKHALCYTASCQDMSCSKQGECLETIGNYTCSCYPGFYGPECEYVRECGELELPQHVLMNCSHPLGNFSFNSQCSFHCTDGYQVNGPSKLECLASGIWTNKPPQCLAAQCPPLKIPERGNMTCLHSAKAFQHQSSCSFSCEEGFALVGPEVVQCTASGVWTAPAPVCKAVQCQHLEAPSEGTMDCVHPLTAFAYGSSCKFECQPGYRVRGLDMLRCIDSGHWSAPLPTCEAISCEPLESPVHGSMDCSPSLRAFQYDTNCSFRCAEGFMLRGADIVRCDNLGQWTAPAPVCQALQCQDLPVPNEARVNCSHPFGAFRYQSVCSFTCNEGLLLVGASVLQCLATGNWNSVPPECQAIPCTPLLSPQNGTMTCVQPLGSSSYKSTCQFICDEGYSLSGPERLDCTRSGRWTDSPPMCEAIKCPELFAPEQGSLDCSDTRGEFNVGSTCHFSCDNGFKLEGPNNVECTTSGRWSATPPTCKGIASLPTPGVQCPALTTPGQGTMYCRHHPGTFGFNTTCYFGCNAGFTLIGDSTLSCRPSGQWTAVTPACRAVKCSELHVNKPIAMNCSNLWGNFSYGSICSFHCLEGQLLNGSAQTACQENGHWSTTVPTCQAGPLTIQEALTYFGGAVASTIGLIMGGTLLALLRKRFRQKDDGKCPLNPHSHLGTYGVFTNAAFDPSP
# [1] = molecular target: T2, P-selectin (Homo sapiens) (UniProt P16109); experiment: Ratio of compound IC50 to sialyl Lewisx IC50 for solube P-selectin by surface plasmon resonance competitive binding assay
# T2 sequence (whole entry): T1 sequence (P16109 whole entry)
IC50 (P-selectin),Ratio IC50 [1],SMILES
> 1000 µM,–,COC(=O)[C@H](O[C@@H]1O[C@@H](C)[C@@H](O)[C@@H](O)[C@@H]1O)[C@@H](O[C@@H]1O[C@H](CO)[C@H](OC(=O)c2cccc3ccccc23)[C@H](O[C@H](Cc2ccccc2)C(=O)O)[C@H]1O)C(=O)OC
> 1000 µM,–,COC(=O)[C@H](O[C@@H]1O[C@@H](C)[C@@H](O)[C@@H](O)[C@@H]1O)[C@@H](O[C@@H]1O[C@H](CO)[C@H](O)[C@H](OCC(=O)O)[C@H]1O)C(=O)OC
18 µM,37,COC(=O)[C@H](O[C@@H]1O[C@@H](C)[C@@H](O)[C@@H](O)[C@@H]1O)[C@@H](O[C@@H]1O[C@H](CO)[C@H](OC(=O)c2ccccc2)[C@H](O[C@H](Cc2ccccc2)C(=O)O)[C@H]1O)C(=O)OC
880 µM,0.75,COC(=O)[C@H](O[C@@H]1O[C@@H](C)[C@@H](O)[C@@H](O)[C@@H]1O)[C@@H](O[C@@H]1O[C@H](CO)[C@H](O)[C@H](O[C@H](Cc2ccccc2)C(=O)O)[C@H]1O)C(=O)OC
